From ChEMBL document CHEMBL1201861, “Genomics of Drug Sensitity in Cancer screening data, Wellcome Trust Sanger Institute”

How the values were obtained:
Assay in all cases: cells
Conditions in all cases: Homo sapiens
[1] = system: BPH-1; assay type: functional, cell-based;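 also: cell viability assay measuring growth inhibition of human BPH-1 cells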
Description: SANGER: Inhibition of human BPH-1 cell growth in a cell viability assay.

[2] = system: 786-0; assay type: functional, cell-based
Description: SANGER: Inhibition of human 786-0 cell growth in a cell viability assay.

[3] = system: CHL-1; assay type: functional, cell-based;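 also: cell growth inhibition, read out with a cell viability assay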
Description: SANGER: Inhibition of human CHL-1 cell growth in a cell viability assay.

[4] = system: SW13; assay type: functional, cell-based;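 also: IC50 is inhibition of SW13 cell growth, read out with a cell viability assay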
Description: SANGER: Inhibition of human SW13 cell growth in a cell viability assay.

[5] = system: Daoy; assay type: functional, cell-based;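 also: daoy cell growth inhibition, read out as cell viability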
Description: SANGER: Inhibition of human Daoy cell growth in a cell viability assay.

[6] = system: PC-3; assay type: functional, cell-based;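 also: cell viability assay measuring growth inhibition of PC-3 cells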
Description: SANGER: Inhibition of human PC-3 cell growth in a cell viability assay.

[7] = system: A-427; assay type: functional, cell-based;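 also: growth inhibition of human A-427 cells, read out by a cell viability assay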
Description: SANGER: Inhibition of human A427 cell growth in a cell viability assay.

[8] = system: PANC-03-27; assay type: functional, cell-based
Description: SANGER: Inhibition of human PANC-03-27 cell growth in a cell viability assay.

[9] = system: VM-CUB-1; assay type: functional, cell-based;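 also: cell viability assay measuring growth inhibition of the human VM-CUB-1 cell line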
Description: SANGER: Inhibition of human VM-CUB-1 cell growth in a cell viability assay.

[10] = system: OVCAR-5; assay type: functional, cell-based;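 also: growth inhibition of human OVCAR-5 cells, read out with a cell viability assay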
Description: SANGER: Inhibition of human OVCAR-5 cell growth in a cell viability assay.

[11] = system: SW1417; assay type: functional, cell-based;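 also: growth inhibition of human SW1417 cells, read out with a cell viability assay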
Description: SANGER: Inhibition of human SW1417 cell growth in a cell viability assay.

[12] = system: T84; assay type: functional, cell-based;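 also: growth inhibition measured with a cell viability readout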
Description: SANGER: Inhibition of human T84 cell growth in a cell viability assay.

[13] = system: Huh-7; assay type: functional, cell-based;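 also: HuH-7 cell growth inhibition, read out with a cell viability assay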
Description: SANGER: Inhibition of human HuH-7 cell growth in a cell viability assay.

[14] = system: KU-19-19; assay type: functional, cell-based
Description: SANGER: Inhibition of human KU-19-19 cell growth in a cell viability assay.

[15] = system: COLO-679; assay type: functional, cell-based
Description: SANGER: Inhibition of human COLO-679 cell growth in a cell viability assay.

[16] = system: THP-1; assay type: functional, cell-based;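 also: growth inhibition of THP-1 cells, read out via a cell viability assay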
Description: SANGER: Inhibition of human THP-1 cell growth in a cell viability assay.

[17] = system: MEL-HO; assay type: functional, cell-based
Description: SANGER: Inhibition of human MEL-HO cell growth in a cell viability assay.

[18] = system: LK-2; assay type: functional, cell-based;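 also: growth inhibition of LK-2 cells, read out with a viability assay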
Description: SANGER: Inhibition of human LK-2 cell growth in a cell viability assay.

[19] = system: BHY; assay type: functional, cell-based;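 also: cell growth inhibition read out by a viability assay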
Description: SANGER: Inhibition of human BHY cell growth in a cell viability assay.

[20] = system: GMS-10; assay type: functional, cell-based;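 also: growth inhibition of GMS-10 cells, read out as cell viability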
Description: SANGER: Inhibition of human GMS-10 cell growth in a cell viability assay.

[21] = system: HuP-T4; assay type: functional, cell-based;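 also: cell viability assay measuring how much HuP-T4 cell growth is inhibited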
Description: SANGER: Inhibition of human HuP-T4 cell growth in a cell viability assay.

[22] = system: NCI-H2171; assay type: functional, cell-based;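 also: growth inhibition of human NCI-H2171 cells, read out by a cell viability assay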
Description: SANGER: Inhibition of human NCI-H2171 cell growth in a cell viability assay.

[23] = system: ECC4; assay type: functional, cell-based;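 also: growth inhibition of ECC4 cells, read out with a cell viability assay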
Description: SANGER: Inhibition of human ECC4 cell growth in a cell viability assay.

[24] = system: NCI-H2170; assay type: functional, cell-based;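 also: cell viability assay measuring growth inhibition of human NCI-H2170 cancer cells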
Description: SANGER: Inhibition of human NCI-H2170 cell growth in a cell viability assay.

[25] = system: IGR-1; assay type: functional, cell-based;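 also: growth inhibition of human IGR-1 cells, read out with a cell viability assay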
Description: SANGER: Inhibition of human IGR-1 cell growth in a cell viability assay.

[26] = system: U-698-M; assay type: functional, cell-based
Description: SANGER: Inhibition of human U-698-M cell growth in a cell viability assay.

[27] = system: HCC1419; assay type: functional, cell-based;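 also: growth inhibition of human HCC1419 cells, read out as cell viability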
Description: SANGER: Inhibition of human HCC1419 cell growth in a cell viability assay.

[28] = system: M14; assay type: functional, cell-based;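 also: growth inhibition of M14 cells, read out with a cell viability assay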
Description: SANGER: Inhibition of human M14 cell growth in a cell viability assay.

[29] = system: CAKI-1; assay type: functional, cell-based;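 also: growth inhibition of CAKI-1 cells, measured by a cell viability assay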
Description: SANGER: Inhibition of human CAKI-1 cell growth in a cell viability assay.

[30] = system: RCM-1; assay type: functional, cell-based;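 also: growth inhibition of the RCM-1 line, determined with a cell viability readout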
Description: SANGER: Inhibition of human RCM-1 cell growth in a cell viability assay.

[31] = system: FaDu; assay type: functional, cell-based;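 also: cell viability readout of growth inhibition in FaDu cells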
Description: SANGER: Inhibition of human FADU cell growth in a cell viability assay.

[32] = system: EB2; assay type: functional, cell-based;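 also: growth inhibition of EB2 cells, read out with a cell viability assay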
Description: SANGER: Inhibition of human EB2 cell growth in a cell viability assay.

[33] = system: COLO-741; assay type: functional, cell-based
Description: SANGER: Inhibition of human COLO-741 cell growth in a cell viability assay.

[34] = system: COR-L105; assay type: functional, cell-based;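 also: cell growth inhibition determined with a viability assay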
Description: SANGER: Inhibition of human COR-L105 cell growth in a cell viability assay.

[35] = system: SK-MEL-30; assay type: functional, cell-based;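 also: growth inhibition of SK-MEL-30 cells, determined with a cell viability assay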
Description: SANGER: Inhibition of human SK-MEL-30 cell growth in a cell viability assay.

[36] = system: CHP-126; assay type: functional, cell-based
Description: SANGER: Inhibition of human CHP-126 cell growth in a cell viability assay.

[37] = system: HuCCT-1; assay type: functional, cell-based, HuCCT1;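 also: growth inhibition of HuCCT-1 cells, read out by a cell viability assay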
Description: SANGER: Inhibition of human HuCCT1 cell growth in a cell viability assay.

[38] = system: HCC1937; assay type: functional, cell-based;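 also: growth inhibition measured with a cell viability read-out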
Description: SANGER: Inhibition of human HCC1937 cell growth in a cell viability assay.

[39] = system: CAPAN-1; assay type: functional, cell-based;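 also: growth suppression of CAPAN-1 cells, read out by a cell viability assay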
Description: SANGER: Inhibition of human CAPAN-1 cell growth in a cell viability assay.

[40] = system: BCPAP; assay type: functional, cell-based;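 also: growth inhibition of BCPAP cells, read out in a cell viability assay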
Description: SANGER: Inhibition of human BCPAP cell growth in a cell viability assay.

[41] = system: K052; assay type: functional, cell-based;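 also: Read-out from a cell viability assay, IC50 reflecting suppression of K052 cell growth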
Description: SANGER: Inhibition of human K052 cell growth in a cell viability assay.

[42] = system: NCI-H630; assay type: functional, cell-based;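 also: growth inhibition of NCI-H630 cells, read out with a cell viability assay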
Description: SANGER: Inhibition of human NCI-H630 cell growth in a cell viability assay.

[43] = system: P12-Ichikawa; assay type: functional, cell-based
[44] = system: EFO-21; assay type: functional, cell-based;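 also: growth inhibition of EFO-21 cells measured with a viability assay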
Description: SANGER: Inhibition of human EFO-21 cell growth in a cell viability assay.

[45] = system: NCI-H2342; assay type: functional, cell-based;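 also: growth inhibition of the cancer cell line, determined with a cell viability assay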
Description: SANGER: Inhibition of human NCI-H2342 cell growth in a cell viability assay.

[46] = system: SK-MEL-28; assay type: functional, cell-based;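 also: growth inhibition of human SK-MEL-28 cells, read out with a cell viability assay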
Description: SANGER: Inhibition of human SK-MEL-28 cell growth in a cell viability assay.

[47] = system: MCF7; assay type: functional, cell-based;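 also: growth inhibition of human MCF7 cells, read out with a cell viability assay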
Description: SANGER: Inhibition of human MCF7 cell growth in a cell viability assay.

[48] = system: SIMA; assay type: functional, cell-based;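 also: growth inhibition of SIMA cells, measured with a cell viability readout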
Description: SANGER: Inhibition of human SIMA cell growth in a cell viability assay.

[49] = system: Panc1005; assay type: functional, cell-based;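 also: growth inhibition of human PANC-10-05 cells, measured by a cell viability assay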
Description: SANGER: Inhibition of human PANC-10-05 cell growth in a cell viability assay.

[50] = system: ACHN; assay type: functional, cell-based;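 also: cell viability read-out used to gauge how strongly growth of human ACHN cells is suppressed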
Description: SANGER: Inhibition of human ACHN cell growth in a cell viability assay.

[51] = system: NCI-H441; assay type: functional, cell-based;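 also: growth inhibition of NCI-H441 cells, read out with a cell viability assay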
Description: SANGER: Inhibition of human NCI-H441 cell growth in a cell viability assay.

[52] = system: NCI-H2196; assay type: functional, cell-based;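 also: cell viability assay used as the readout of growth inhibition in NCI-H2196 cells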
Description: SANGER: Inhibition of human NCI-H2196 cell growth in a cell viability assay.

[53] = system: WSU-NHL; assay type: functional, cell-based;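 also: growth inhibition of human WSU-NHL cells, read out with a cell viability assay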
Description: SANGER: Inhibition of human WSU-NHL cell growth in a cell viability assay.

[54] = system: KYSE-140; assay type: functional, cell-based;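 also: cell viability assay measuring growth inhibition in human KYSE-140 cells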
Description: SANGER: Inhibition of human KYSE-140 cell growth in a cell viability assay.

[55] = system: SCLC-21H; assay type: functional, cell-based;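 also: growth inhibition of cultured human SCLC-21H cells, read out with a cell viability assay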
Description: SANGER: Inhibition of human SCLC-21H cell growth in a cell viability assay.

[56] = system: NCI-H187; assay type: functional, cell-based;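 also: growth inhibition of NCI-H187 cells, read out as cell viability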
Description: SANGER: Inhibition of human NCI-H187 cell growth in a cell viability assay.

[57] = system: WM-115; assay type: functional, cell-based
Description: SANGER: Inhibition of human WM-115 cell growth in a cell viability assay.

[58] = system: NCI-H727; assay type: functional, cell-based;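 also: growth inhibition of human NCI-H727 cells, read out with a cell viability assay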
Description: SANGER: Inhibition of human NCI-H727 cell growth in a cell viability assay.

[59] = system: UACC-812; assay type: functional, cell-based
Description: SANGER: Inhibition of human UACC-812 cell growth in a cell viability assay.

[60] = system: HCC 2998; assay type: functional, cell-based;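 also: growth inhibition of human HCC2998 cells, measured with a cell viability read-out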
Description: SANGER: Inhibition of human HCC2998 cell growth in a cell viability assay.

[61] = system: DBTRG-05MG; assay type: functional, cell-based;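 also: cell viability assay measuring growth inhibition of human DBTRG-05MG cells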
Description: SANGER: Inhibition of human DBTRG-05MG cell growth in a cell viability assay.

[62] = system: SKG-IIIa; assay type: functional, cell-based;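 also: cell growth inhibition, read out with a cell viability assay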
Description: SANGER: Inhibition of human SKG-IIIa cell growth in a cell viability assay.

[63] = system: NALM-6; assay type: functional, cell-based
Description: SANGER: Inhibition of human NALM-6 cell growth in a cell viability assay.

[64] = system: CAL-120; assay type: functional, cell-based
Description: SANGER: Inhibition of human CAL-120 cell growth in a cell viability assay.

[65] = system: ARH-77; assay type: functional, cell-based
Description: SANGER: Inhibition of human ARH-77 cell growth in a cell viability assay.

## O=c1[nH]c2ccccc2n1C1CCN(Cc2ccc(-c3nc4cc5[nH]cnc5cc4nc3-c3ccccc3)cc2)CC1
[1]
  IC50: > 2560 nM
[2]
  IC50: 1100 nM
[3]
  IC50: > 2560 nM
[4]
  IC50: > 2560 nM
[5]
  IC50: > 2560 nM
[6]
  IC50: > 2560 nM
[7]
  IC50: > 2560 nM
[8]
  IC50: > 2560 nM
[9]
  IC50: > 2560 nM
[10]
  IC50: > 2560 nM
[11]
  IC50: > 2560 nM
[12]
  IC50: > 2560 nM
[13]
  IC50: > 2560 nM
[14]
  IC50: > 2560 nM
[15]
  IC50: > 2560 nM
[16]
  IC50: > 2560 nM
[17]
  IC50: > 2560 nM
[18]
  IC50: > 2560 nM
[19]
  IC50: > 2560 nM
[20]
  IC50: > 2560 nM
[21]
  IC50: > 2560 nM
[22]
  IC50: > 2560 nM
[23]
  IC50: > 2560 nM
[24]
  IC50: > 2560 nM
[25]
  IC50: > 2560 nM
[26]
  IC50: > 2560 nM
[27]
  IC50: 2340 nM
[28]
  IC50: > 2560 nM
[29]
  IC50: > 2560 nM
[30]
  IC50: > 2560 nM
[31]
  IC50: > 2560 nM
[32]
  IC50: > 2560 nM
[33]
  IC50: > 2560 nM
[34]
  IC50: > 2560 nM
[35]
  IC50: > 2560 nM
[36]
  IC50: > 2560 nM
[37]
  IC50: > 2560 nM
[38]
  IC50: > 2560 nM
[39]
  IC50: > 2560 nM
[40]
  IC50: > 2560 nM
[41]
  IC50: > 2560 nM
[42]
  IC50: > 2560 nM
[43]
  IC50: > 2560 nM
[44]
  IC50: > 2560 nM
[45]
  IC50: 938 nM
[46]
  IC50: > 2560 nM
[47]
  IC50: > 2560 nM
[48]
  IC50: > 2560 nM
[49]
  IC50: > 2560 nM
[50]
  IC50: > 2560 nM
[51]
  IC50: > 2560 nM
[52]
  IC50: > 2560 nM
[53]
  IC50: > 2560 nM
[54]
  IC50: > 2560 nM
[55]
  IC50: > 2560 nM
[56]
  IC50: > 2560 nM
[57]
  IC50: > 2560 nM
[58]
  IC50: > 2560 nM
[59]
  IC50: > 2560 nM
[60]
  IC50: > 2560 nM
[61]
  IC50: > 2560 nM
[62]
  IC50: > 2560 nM
[63]
  IC50: 2150 nM
[64]
  IC50: > 2560 nM
[65]
  IC50: > 2560 nM

## Fc1cc(-c2cc[nH]/c(=N/c3ccc(-n4cnc(N5CCOCC5)n4)cc3)n2)cc(N2CCOCC2)c1
[1]
  IC50: 1970 nM
[2]
  IC50: 228 nM
[3]
  IC50: 490 nM
[4]
  IC50: 1380 nM
[5]
  IC50: 865 nM
[6]
  IC50: 4550 nM
[7]
  IC50: 286 nM
[8]
  IC50: 271 nM
[9]
  IC50: 3480 nM
[10]
  IC50: 181 nM
[11]
  IC50: 885 nM
[12]
  IC50: 1520 nM
[13]
  IC50: 756 nM
[14]
  IC50: 5100 nM
[15]
  IC50: 250 nM
[16]
  IC50: 1050 nM
[17]
  IC50: 190 nM
[18]
  IC50: 849 nM
[19]
  IC50: 510 nM
[20]
  IC50: 2840 nM
[21]
  IC50: 3260 nM
[22]
  IC50: 792 nM
[23]
  IC50: 2730 nM
[24]
  IC50: 745 nM
[25]
  IC50: 164 nM
[26]
  IC50: 282 nM
[27]
  IC50: 1090 nM
[28]
  IC50: 342 nM
[29]
  IC50: 334 nM
[30]
  IC50: 1760 nM
[31]
  IC50: 715 nM
[32]
  IC50: 581 nM
[33]
  IC50: > 5120 nM
[34]
  IC50: 235 nM
[35]
  IC50: 588 nM
[36]
  IC50: 608 nM
[37]
  IC50: 554 nM
[38]
  IC50: 1230 nM
[39]
  IC50: 394 nM
[40]
  IC50: 932 nM
[41]
  IC50: 508 nM
[42]
  IC50: 544 nM
[43]
  IC50: 3810 nM
[44]
  IC50: 913 nM
[45]
  IC50: 362 nM
[46]
  IC50: > 5120 nM
[47]
  IC50: 389 nM
[48]
  IC50: 782 nM
[49]
  IC50: 460 nM
[50]
  IC50: 886 nM
[51]
  IC50: > 5120 nM
[52]
  IC50: 786 nM
[53]
  IC50: 587 nM
[54]
  IC50: 1050 nM
[55]
  IC50: > 5120 nM
[56]
  IC50: 2790 nM
[57]
  IC50: > 5120 nM
[58]
  IC50: 647 nM
[59]
  IC50: 4420 nM
[60]
  IC50: 2030 nM
[61]
  IC50: 750 nM
[62]
  IC50: 4890 nM
[63]
  IC50: 214 nM
[64]
  IC50: 1420 nM
[65]
  IC50: 574 nM

## CC(C)=CC[C@@H](O)C1=CC(=O)c2c(O)ccc(O)c2C1=O [SHIKONIN]
[1]
  IC50: 1260 nM
[2]
  IC50: 344 nM
[3]
  IC50: 168 nM
[4]
  IC50: 1410 nM
[5]
  IC50: 159 nM
[6]
  IC50: 859 nM
[7]
  IC50: 18 nM
[8]
  IC50: 167 nM
[9]
  IC50: 1030 nM
[10]
  IC50: 1120 nM
[11]
  IC50: 826 nM
[12]
  IC50: 14500 nM
[13]
  IC50: 1960 nM
[14]
  IC50: 3180 nM
[15]
  IC50: 184 nM
[16]
  IC50: 891 nM
[17]
  IC50: 149 nM
[18]
  IC50: 8570 nM
[19]
  IC50: 564 nM
[20]
  IC50: 11500 nM
[21]
  IC50: 1360 nM
[22]
  IC50: 909 nM
[23]
  IC50: 1200 nM
[24]
  IC50: 1720 nM
[25]
  IC50: 154 nM
[26]
  IC50: 301 nM
[27]
  IC50: 1690 nM
[28]
  IC50: 1490 nM
[29]
  IC50: 894 nM
[30]
  IC50: 2000 nM
[31]
  IC50: 1770 nM
[32]
  IC50: 311 nM
[33]
  IC50: 2690 nM
[34]
  IC50: 230 nM
[35]
  IC50: 695 nM
[36]
  IC50: 695 nM
[37]
  IC50: 483 nM
[38]
  IC50: 1660 nM
[39]
  IC50: 759 nM
[40]
  IC50: 923 nM
[41]
  IC50: 1100 nM
[42]
  IC50: 1300 nM
[43]
  IC50: 1390 nM
[44]
  IC50: 1340 nM
[45]
  IC50: 134 nM
[46]
  IC50: > 16000 nM
[47]
  IC50: 435 nM
[48]
  IC50: 2320 nM
[49]
  IC50: 416 nM
[50]
  IC50: 146 nM
[51]
  IC50: 15800 nM
[52]
  IC50: 654 nM
[53]
  IC50: 260 nM
[54]
  IC50: 374 nM
[55]
  IC50: 1360 nM
[56]
  IC50: 2360 nM
[57]
  IC50: 10600 nM
[58]
  IC50: 638 nM
[59]
  IC50: 5080 nM
[60]
  IC50: > 16000 nM
[61]
  IC50: 611 nM
[62]
  IC50: 4390 nM
[63]
  IC50: < 62.5 nM
[64]
  IC50: 1360 nM
[65]
  IC50: 873 nM
